# Measurements: patent US20230303551A1, “N-CYCLYL-SULFONAMIDES USEFUL FOR INHIBITING RAF” (ALBERT EINSTEIN COLLEGE OF MEDICINE, priority 2020, published 2023)
# “Also recorded” adds a separate entry of the source.
# Experiments:
# [1] = test system: RKO cells; assay: Cell viability (Cell-Titer Glo), RKO; assay type: cell-based
# Procedure: (§1) For cell viability and proliferation assays, we followed the manufacturer's protocol for Cell-Titer Glo (Promega). In brief, cells were plated in 96-well plates at a density of 5000 cells per well. The next day, cells were treated with increasing concentrations of inhibitors for 72 hours at 37° C. At the end of the incubation period, 100 μL of Cell-Titer Glo (Promega) was added to each well and further incubated for 15 min at room temperature. Cell viability was determined by measuring luminescence and was detected by a F200 PRO microplate reader (TECAN). Viability assays were performed in at least triplicate and the data normalized to vehicle-treated control wells. IC50 values were determined by nonlinear regression analysis using Prism software (Graphpad). Antiproliferative synergy was determined by co-treatment of inhibitors at indicated concentrations in 96-well plated at a density of 3000 cells per well. Inhibitors or DMSO control were injected using a D300e digital dispenser (TECAN). Extend of synergy was quantified using the BLISS matrix method.
# [2] = test system: pERK in melanoma A375 cells expressing BRAF^V600E; assay: pERK inhibition in A375 cells (Western blot densitometry); assay type: cell-based; conditions: 1 hr treatment
# Procedure: Western blots were performed from whole cell lysates (WCLs) prepared in lysis buffer containing 50 mM Tris-HCl pH7.5, 1% NP40, 150 mM NaCl, 1 mM EDTA and 10% glycerol in the presence of protease inhibitor cocktail (Roche). WCLs were separated on a 4-12% NuPAGE MES gel (Invitrogen), transferred onto a PVDF membrane, blocked for lhr and immunoblotted with the corresponding antibodies.
# (§2) Densitometric data for p-ERK, p-MEK, ERK1/2 (MAPK cellular activity) or BRAF and GAPDH (CETSA analysis) from western blot scanned films were obtained using Image Studio software (LI-COR). Data were corrected to loading control (total ERK1/2 or GAPDH) and normalized to DMSO treated bands (100%) and blot backgrounds (0%). IC50 or Tm values were obtained from non-linear regression fits of normalized data to a four-parameter logistic curve (4PL).
# [3] = target: full length BRAF^V600E (Homo sapiens, UniProt P15056, V600E); assay: In vitro residence time (ATP-site tracer T178 displacement, LanthaScreen); assay type: binding; conditions: kinase ATP-probe displacement
# Procedure: Residence times of inhibitors to recombinant full-length BRAF was determined using an adaptation of the LanthaScreen Eu Kinase Binding Assay (Invitrogen). Initially, binding of inhibitors to his-tagged BRAF labelled with Eu-anti-his antibody at 80-90% saturation was established, by incubating inhibitors and BRAF in PBS buffer (max DMSO 2%) for […] The reactions were then rapidly diluted 25× times in a saturated concentration of the fluorescent ATP-site tracer T178 (Invitrogen). Dissociation of inhibitors from BRAF by T178 tracer was monitored in real-time by detecting the TR-FRET […] to […] emission ratio every 20 sec. The TR-FRET signal was normalized between 100% (no inhibitors present) and 0% (saturated inhibitor binding). Time traces were fit to a single exponential to obtain the half-life (t1/2) of dissociation of inhibitors. Residence times for each inhibitor were calculated as (t1/2)/ln2.
# [4] = target: T1, BRAF^V600E (Homo sapiens, UniProt P15056, V600E); assay: Z'-LYTE kinase activity assay, BRAF^V600E; assay type: biochemical; conditions: equilibrium; ZLYTE
# Procedure: BRAF kinase assays were performed using the Z′-LYTE™ enzymatic assay (Invitrogen, USA). […] Titrations were performed using a 1:3 dilution. Assays were performed using SelectScreen (Invitrogen).
# [5] = test system: SK-MEL-239-C4 cells; assay: Cell viability (Cell-Titer Glo), SK-MEL-239-C4; assay type: cell-based; conditions: SK-MEL-239-C4, 72 hr
# Procedure: as §1
# [6] = test system: pERK in A375 xenograft tumors; assay: Pharmacodynamic study, pERK in A375 xenograft tumors; assay type: in vivo, female SCID mice; conditions: 5 mg/kg single oral dose, A375 mice xenograft
# Procedure: (§3) The pharmacokinetic profile of DAB and DABK was assessed in CD-1 female mice after a single dose at 5 mg/kg by oral gavage. Blood samples were collected at various time points (0.5, 1, 2, 4, 6, 12 and 24 hr after oral gavage) and inhibitor concentrations in plasma determined by an internal standard HPLC-chromatography tandem mass spectrometry method using calibration standards prepared in blank mouse plasma. Reported plasma concentrations are average values from 3 mice per time point. For PD study, tumor xenografts were established by subcutaneous implantation of A375 melanoma cells plus Matrigel (BD Biosciences) into the right flank of female SCID mice. Mice were randomized to treatment and control groups when the average tumor volume reached 100-150 mm^3 and were treated with a single oral dose (PO) of either vehicle or inhibitors at 5 mg/kg. Tumors were harvested at 2, 12 and 24 hr post PO (3 mice per group). Harvested tumors were homogenized in lysis buffer containing 50 mM Tris-HCl pH7.5, 1% NP40, 150 mM NaCl, 1 mM EDTA, 10% glycerol and phosphatase/protease inhibitors. pERK levels in clarified lysates were determined by Western Blotting and were expressed as % inhibition by normalization to average levels from vehicle tumors (0% inhibition). Vehicle formulation for DAB and DABK treatment in both PK and PD was 30% PEG-400, 0.5% Tween-20, 5% Glycerol in PBS.
# [7] = target: T1, BRAF^V600E; assay: Cellular Thermal Shift Assay (CETSA) in A375 cells; assay type: cell-based; set-up: endogenous in cells; host or cells: A375 melanoma cells; conditions: A375 cells, 1, 5 and 20 μM
# Text: as §2
# For CETSA analysis, cultured A375 melanoma cells were washed with Dulbecco's phosphate buffered saline (DPBS) and split into 500 μL aliquots (each containing 3,75 million cells) in the same buffer, containing DMSO control (20 μM) or 1, 5 and 20 μM of DAB or DABK. The samples were incubated for 1 hr at room temperature, rotating. After compound incubation, samples (50 μL each) were transferred in PCR tubes and incubated for 3 min in a temperature gradient produced with a C1000 thermal cycler (Bio-Rad). Cells were immediately lysed by repeating freeze-thaw cycles (3× times) in liquid nitrogen. Lysates were spun in a microcentrifuge at 15.000× g for 15 min at 4° C. Equal volumes of supernatants were run on 15-well 4-12% NuPAGE SDS-PAGE gels (Invitrogen), and analyzed by western blot. Results were quantitated by densitometric analysis and were normalized to GAPDH loading control, which is temperature insensitive under these conditions. […]
# [8] = test system: p-MEK in A375 cells; assay: Wash-out and recovery of MAPK signaling in A375 cells; assay type: cell-based; conditions: for relative p-MEK1/2 after washout: A375, 500 nM for 1 hr, then washout
# Procedure: Wash-out experiments were conducted in A375 cells. After treatment with inhibitors at 500 nM for 1 h (on time), cells were incubated with fresh medium for the indicated times (off time). p-MEK levels were determined by WB and were quantified by densitometric analysis. p-MEK levels were normalized to total ERK1/2 which was used as loading control and control cells (DMSO treatment). Data were fit to an exponential model using least squares, to obtain apparent half-life (t1/2) values.
# as §2
# [9] = test system: panel of 97 kinases; assay: KinomeScan; assay type: binding; conditions: competition screen
# [10] = test system: A375 cells; assay: Cell viability (Cell-Titer Glo), A375; assay type: cell-based; conditions: Homo sapiens, A-375; A375, 72 hr
# Procedure: as §1
# [11] = test system: p-ERK1/2 and p-MEK1/2 in SKMEL239-C4 cells; assay: Wash-out and recovery of MAPK signaling in SKMEL239-C4 cells; assay type: cell-based; conditions: SKMEL239-C4, 500 nM for 1 hr, then washout
# [12] = test system: A549 cells; assay: Cell viability and antiproliferative synergy with cobimetinib (Bliss matrix), A549; assay type: cell-based; conditions: A549, combination with cobimetinib (COB)
# Procedure: as §1
# [13] = target: T1, BRAF^V600E; assay: LanthaScreen Eu kinase binding assay
# Procedure: Binding affinity of inhibitors to recombinant full-length BRAF was determined using the LanthaScreen Eu Kinase Binding Assay (Invitrogen) in PBS buffer. Initially, saturated binding of fluorescent Alexa Fluor 647 ATP-site tracer T178 (Invitrogen) on BRAF, which was his-tagged at the N-terminus, was established. T178 tracer was then competed-off by increasing amounts of inhibitors in titration experiments in 96-well plates. Competition was detected by loss of TR-FRET signal. The signal was produced by a FRET pair between an Eu-labeled anti his-tag antibody, which recognizes his-tagged BRAF used in the assay, and the T178 tracer. The europium donor was excited using a 340 nm excitation filter and energy transfer to the T178 tracer was measured using a filter centered at 665 nm with a time delay of 200 μs. The emission ratio was calculated as the 665 nm signal divided by the 615 nm signal. The apparent % inhibition was calculated by least squares fits of the emission ratio. […] The maximum DMSO concentration in the assay was 2%.
# [14] = Pharmacokinetic profile, mouse plasma levels after oral gavage; assay type: in vivo, CD-1 female mice; conditions: 5 mg/kg
# Procedure: as §3
# T1 sequence (P15056 whole entry V600E): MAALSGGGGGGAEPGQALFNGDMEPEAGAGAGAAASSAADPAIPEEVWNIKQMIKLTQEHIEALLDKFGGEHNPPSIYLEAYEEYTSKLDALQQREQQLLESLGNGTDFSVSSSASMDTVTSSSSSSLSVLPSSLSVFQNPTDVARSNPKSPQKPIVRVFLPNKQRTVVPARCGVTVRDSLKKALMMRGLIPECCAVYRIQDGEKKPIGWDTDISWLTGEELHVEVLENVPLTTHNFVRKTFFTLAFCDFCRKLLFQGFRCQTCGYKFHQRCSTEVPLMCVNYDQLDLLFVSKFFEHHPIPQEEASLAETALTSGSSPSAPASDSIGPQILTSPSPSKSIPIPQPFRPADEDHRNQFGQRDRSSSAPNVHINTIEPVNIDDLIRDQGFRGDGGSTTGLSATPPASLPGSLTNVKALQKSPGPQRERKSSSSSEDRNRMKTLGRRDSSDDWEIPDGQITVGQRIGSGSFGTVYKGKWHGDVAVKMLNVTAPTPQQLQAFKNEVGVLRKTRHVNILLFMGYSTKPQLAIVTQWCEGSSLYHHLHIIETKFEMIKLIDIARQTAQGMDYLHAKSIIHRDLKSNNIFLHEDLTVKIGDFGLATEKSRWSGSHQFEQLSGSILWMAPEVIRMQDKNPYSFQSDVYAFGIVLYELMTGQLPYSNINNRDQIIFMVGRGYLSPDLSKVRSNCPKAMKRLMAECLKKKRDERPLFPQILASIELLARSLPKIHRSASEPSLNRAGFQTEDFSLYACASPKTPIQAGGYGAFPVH
# Sequence of full length BRAF^V600E (P15056 whole entry V600E): as above
SMILES,IC50 ([1]; 72 hr) [nM],"IC50 ([1]; Homo sapiens, 72 h) [nM]",IC50 of pERK inhibition [2],apparent in vitro residence time (Koff) [3],IC50 ([5]; 72 h) [nM],IC50 [5] [nM],melting temperature (Tm) [7],relative p-MEK1/2 after washout [8],IC50 [10] [nM],p-MEK1/2 inhibition after washout [11],relative p-ERK1/2 after washout [11],also measured
COC(=O)N[C@@H](C)CNc1nccc(-c2sc(C(C)(C)C)nc2-c2cccc(NS(=O)(=O)c3c(F)cccc3F)c2F)n1 [DABK],20.6,20,comparable IC50 to Enco,sustained binding in the time frame of the experiment,35,35.3,very similar,prolonged signaling inhibition over time,3.4,Almost complete p-MEK1/2 inhibition over time,prolonged ERK signaling inhibition over time,"IC50, kinase inhibitory activity [4]: low nM range; endurance of pERK inhibition in tumors [6]: > 12 hr; half-life of recovery of pMEK inhibition ([8]; A375, 500 nM for 1 h, then wash-out): 2.5 hours; retention of p-MEK inhibition relative to DAB ([8]; A375 wash-out, times longer than DAB): approximately 4.4 times; targeting selectivity across the kinome [9]: improved compared to DAB's; also recorded: improved targeting selectivity across the kinome; also recorded: higher specificity than DAB; extent of antiproliferative synergy [12]: strong synergy; Kd, binding affinity [13]: low nM range; clearance from the blood [14]: faster clearance from the blood than DAB"
"COC(=O)N[C@@H](C)CNc1nccc(-c2cn(C(C)C)nc2-c2cc(Cl)cc(NS(C)(=O)=O)c2F)n1 [Enco, encorafenib]",–,> 400,–,sustained binding in the time frame of the experiment,> 400,–,–,–,–,–,–,–
COC(=O)N[C@@H](CN)CNc1nccc(-c2sc(C(C)(C)C)nc2-c2cccc(NS(=O)(=O)c3c(F)cccc3F)c2F)n1 [Compound K8],–,–,–,–,–,–,–,prolonged signaling inhibition over time,–,Almost complete p-MEK1/2 inhibition over time,prolonged ERK signaling inhibition over time,–
"CC(C)(C)c1nc(-c2cccc(NS(=O)(=O)c3c(F)cccc3F)c2F)c(-c2ccnc(N)n2)s1 [DAB, dabrafenib]",425,> 400,lower IC50,significantly shorter residence times,> 400,456,very similar,–,5.3,–,–,–
C[C@@H](CNc1nccc(-c2sc(C(C)(C)C)nc2-c2cccc(NS(=O)(=O)c3c(F)cccc3F)c2F)n1)NC(=O)CCO [Compound K6],–,–,–,–,–,–,–,prolonged signaling inhibition over time,–,Almost complete p-MEK1/2 inhibition over time,prolonged ERK signaling inhibition over time,–
"CCCS(=O)(=O)Nc1ccc(F)c(C(=O)c2c[nH]c3ncc(-c4ccc(Cl)cc4)cc23)c1F [VEM, vemurafenib]",–,> 400,–,–,> 400,–,–,–,–,–,–,–
